Reference: patent publication US20120178765A1, “NOVEL GLUCOKINASE ACTIVATORS AND PROCESSES FOR THE PREPARATION THEREOF” (YUHAN CORPORATION, priority 2009, published 2012)

Molecular target: T1, Glucokinase (Homo sapiens, UniProt P35557)
T1 construct: purchased ProteinOne Inc
T1 sequence (P35557 1-465): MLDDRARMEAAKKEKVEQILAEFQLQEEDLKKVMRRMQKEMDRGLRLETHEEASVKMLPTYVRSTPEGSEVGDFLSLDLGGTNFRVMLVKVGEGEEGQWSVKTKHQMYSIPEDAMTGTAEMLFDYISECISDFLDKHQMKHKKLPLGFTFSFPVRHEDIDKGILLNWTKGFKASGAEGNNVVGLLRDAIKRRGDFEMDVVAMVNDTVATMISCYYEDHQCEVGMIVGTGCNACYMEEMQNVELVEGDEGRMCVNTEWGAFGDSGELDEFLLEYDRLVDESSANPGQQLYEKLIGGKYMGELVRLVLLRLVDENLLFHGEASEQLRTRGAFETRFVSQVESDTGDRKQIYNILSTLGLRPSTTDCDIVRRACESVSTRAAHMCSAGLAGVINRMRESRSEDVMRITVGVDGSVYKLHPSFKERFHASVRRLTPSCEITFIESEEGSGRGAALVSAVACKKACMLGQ
Assay: Glucokinase activation assay (NADPH absorbance at 340 nm)
Type: biochemical
Settings: glucokinase (ProteinOne Inc.), 5 mM D(+)-glucose, 24° C., 90 minutes
Experimental: The amounts of glucokinase activation were determined by measuring the levels of NADPH (the final metabolite of glucose through glucokinase-mediated phospho-rylation) and then calculating to glucokinase activities.
Glucokinase (ProteinOne Inc.) was added, in the concentration of 100 ng/uL, to a enzyme-reaction medium (25 mM HEPES pH 7, 25 mM KCL, 1 mM MgCl, 5 mM D(+)-glucose, 1 mM ATP, 1 mM NADP, 1 mM DTT, and 2.5 u/mL G6PDH). Each compound in predetermined concentrations was added to the enzyme-reaction medium and then absorbance (First Absorbance) was measured at 340 nm of wavelength. After measuring the first absorbance, each reaction mixture was incubated at 24° C. for 90 minutes and then absorbance (Second Absorbance) was re-measured at 340 nm of wavelength. Using changes between First Absorbance and Second Absorbance, glucokinase activity was calculated. In the calculation, a maximum activity of the test compound (Emax), in comparison to the control group (no treatment of compound) was determined and then EC50 was calculated using the software for statistical analysis “Prism”, based on the activity-changes according to concentrations of the test compounds.
The amounts of glucokinase activation of the compounds of Comparative Examples 1 and 2 were determined, in accordance with the same procedures as in Test Example 1.

Point of comparison: `COC[C@H](C)Oc1cc(CCc2ccccc2NC(=O)Cc2cccs2)cc(C(=O)Nc2nccs2)c1` [Example 114], EC50 275 nM. Against it:
- 3-[trans-2-(4-methoxyphenyl)vinyl]-5-(2-methoxy-(1S)-methyl-ethoxy)-N-(1-methyl-1H-pyrazol-3-yl)-benzamide [Example 41] — within 1.5-fold, 245 nM
- 3-[trans-2-(2,6-dimethoxyphenyl)vinyl]-5-(2-methoxy-(1S)-methyl-ethoxy)-N-(5-fluorothiazol-2-yl)-benzamide [Example 29] — 2.1-fold lower, 128 nM
- COC[C@H](C)Oc1cc(/C=C/c2cc(F)ccc2F)cc(C(=O)Nc2ccc(C(=O)O)cn2)c1 [Example 80, 3-[trans-2-(2,5-difluorophenyl)vinyl]-5-(2-methoxy-(1S)-methyl-ethoxy)-N-(nicotinic acid-6-yl)-benzamide] — 2.1-fold lower, 134 nM
- 3-[trans-2-(2-fluorophenyl)vinyl]-5-(2-methoxy-(1S)-methyl-ethoxy)-N-(5-fluorothiazol-2-yl)-benzamide [Example 22] — 4.2-fold lower, 65.6 nM
- 3-{2-[3-(2-(thiophen-2-yl)acetylamino)phenyl]ethyl}-5-(2-methoxy-(1S)-methyl-ethoxy)-N-(thiazol-2-yl)-benzamide [Example 129] — within 1.5-fold, 271 nM
- 3-[trans-2-(2-methoxyphenyl)vinyl]-5-(2-methoxy-(1S)-methyl-ethoxy)-N-(pyrazin-2-yl)-benzamide [Example 48] — within 1.5-fold, 281 nM
- CC(C)COc1cc(/C=C/c2cc(F)ccc2F)cc(C(=O)Nc2nccs2)c1 [Example 71, 3-[trans-2-(2,5-difluorophenyl)vinyl]-5-isobutoxy-N-(thiazol-2-yl)-benzamide] — 3.2-fold lower, 84.8 nM
- COC[C@H](C)Oc1cc(/C=C/c2ccccc2F)cc(C(=O)Nc2ccc(C(=O)OC)cn2)c1 [Example 64, 3-[trans-2-(2-fluorophenyl)vinyl]-5-(2-methoxy-(1S)-methyl-ethoxy)-N-(nicotinic acid-3-methyl ester-6-yl)-benzamide] — 1.7-fold lower, 159 nM
- 3-[2-(4-benzoylaminophenyl)ethyl]-5-(2-methoxy-(1S)-methyl-ethoxy)-N-(thiazol-2-yl)-benzamide [Example 138] — within 1.5-fold, 292 nM
- 3-{2-[3-(4-fluorobenzoylamino)phenyl]ethyl}-5-(2-methoxy-(1S)-methyl-ethoxy)-N-(thiazol-2-yl)-benzamide [Example 125] — within 1.5-fold, 340 nM
- COC[C@H](C)Oc1cc(/C=C/c2ccc(F)cc2F)cc(C(=O)Nc2ccc(C(=O)O)cn2)c1 [Example 79, 3-[trans-2-(2,4-difluorophenyl)vinyl]-5-(2-methoxy-(1S)-methyl-ethoxy)-N-(nicotinic acid-6-yl)-benzamide] — 2.9-fold lower, 95.1 nM
- 3-[trans-2-(4-bromophenyl)vinyl]-5-(2-methoxy-(1S)-methyl-ethoxy)-N-(1-methyl-1H-pyrazol-3-yl)-benzamide [Example 45] — 1.5-fold lower, 181 nM
- 3-[trans-2-(2,4-difluorophenyl)vinyl]-5-(2-methoxy-(1S)-methyl-ethoxy)-N-(5-fluorothiazol-2-yl)-benzamide [Example 25] — 3.9-fold lower, 70.2 nM
- 3-[trans-2-(2-bromophenyl)vinyl]-5-(2-methoxy-(1S)-methyl-ethoxy)-N-(1-methyl-1H-pyrazol-3-yl)-benzamide [Example 43] — within 1.5-fold, 322 nM
- 3-[trans-2-(3-chlorophenyl)vinyl]-5-(2-methoxy-(1S)-methyl-ethoxy)-N-(pyrazin-2-yl)-benzamide [Example 54] — within 1.5-fold, 382 nM
- 3-[2-(3-aminophenyl)ethyl]-5-(2-methoxy-(1S)-methyl-ethoxy)-N-(thiazol-2-yl)-benzamide [Example 91] — 4-fold lower, 68.9 nM
- COC[C@H](C)Oc1cc(/C=C/c2ccccc2[N+](=O)[O-])cc(C(=O)Nc2nccs2)c1 [Example 13, 3-[trans-2-(2-nitrophenyl)vinyl]-5-(2-methoxy-(1S)-methyl-ethoxy)-N-(thiazol-2-yl)-benzamide] — 22-fold lower, 12.7 nM
- 3-[trans-2-(2,3,5-trifluorophenyl)vinyl]-5-(2-methoxy-(1S)-methyl-ethoxy)-N-(5-fluorothiazol-2-yl)-benzamide [Example 27] — 3.2-fold lower, 86.6 nM
- 3-[trans-2-(4-fluorophenyl)vinyl]-5-(2-methoxy-(1S)-methyl-ethoxy)-N-(pyrazin-2-yl)-benzamide [Example 52] — 1.5-fold higher, 420 nM
- COC[C@H](C)Oc1cc(/C=C/c2cc(F)ccc2F)cc(C(=O)Nc2ccc(C(=O)OC)cn2)c1 [Example 68, 3-[trans-2-(2,5-difluorophenyl)vinyl]-5-(2-methoxy-(1S)-methyl-ethoxy)-N-(nicotinic acid-3-methyl ester-6-yl)-benzamide] — within 1.5-fold, 355 nM
- 3-[2-(3-benzoylaminophenyl)ethyl]-5-(2-methoxy-(1S)-methyl-ethoxy)-N-(thiazol-2-yl)-benzamide [Example 124] — within 1.5-fold, 281 nM
- COC[C@H](C)Oc1cc(/C=C/c2cccc([N+](=O)[O-])c2)cc(C(=O)Nc2ccn(C)n2)c1 [Example 38, 3-[trans-2-(3-nitrophenyl)vinyl]-5-(2-methoxy-(1S)-methyl-ethoxy)-N-(1-methyl-H-pyrazol-3-yl)-benzamide] — within 1.5-fold, 239 nM
- COC[C@H](C)Oc1cc(CCc2cccc(NC(=O)CC(=O)O)c2)cc(C(=O)Nc2nccs2)c1 [Example 147, 3-[2-(3-malonamic acid phenyl)ethyl]-5-(2-methoxy-(1S)-methyl-ethoxy)-N-(thiazol-2-yl)-benzamide] — within 1.5-fold, 222 nM
- 3-[trans-2-(2-nitrophenyl)vinyl]-5-(2-methoxy-(1S)-methyl-ethoxy)-N-(1-methyl-1H-pyrazol-3-yl)-benzamide [Example 32] — within 1.5-fold, 284 nM
- 3-[trans-2-(2-methoxyphenyl)vinyl]-5-(2-methoxy-(1S)-methyl-ethoxy)-N-(5-fluorothiazol-2-yl)-benzamide [Example 82] — 3-fold lower, 91.8 nM
- 3-[trans-2-(4-fluorophenyl)vinyl]-5-(2-methoxy-(1S)-methyl-ethoxy)-N-(thiazol-2-yl)-benzamide [Example 8] — 3.2-fold lower, 86.4 nM
- 3-[trans-2-(2-fluorophenyl)vinyl]-5-(2-methoxy-(1S)-methyl-ethoxy)-N-(pyrazin-2-yl)-benzamide [Example 51] — within 1.5-fold, 238 nM
- 3-[trans-2-(3-nitrophenyl)vinyl]-5-(2-methoxy-(1S)-methyl-ethoxy)-N-(thiazol-2-yl)-benzamide [Example 14] — 14-fold lower, 19.4 nM
- COC[C@H](C)Oc1cc(/C=C/c2c(F)cccc2F)cc(C(=O)Nc2ccc(C(=O)O)cn2)c1 [Example 81, 3-[trans-2-(2,6-difluorophenyl)vinyl]-5-(2-methoxy-(1S)-methyl-ethoxy)-N-(nicotinic acid-6-yl)-benzamide] — 3.1-fold lower, 89.8 nM
- 3-[2-(4-fluorophenyl)ethyl]-5-(2-methoxy-(1S)-methyl-ethoxy)-N-(pyrazin-2-yl)-benz amide [Example 108] — 1.7-fold higher, 465 nM
- 3-{2-[3-(3-ethyl-thio-ureido)phenyl]ethyl}-5-(2-methoxy-(1S)-methyl-ethoxy)-N-(thiazol-2-yl)-benzamide [Example 131] — 1.8-fold higher, 491 nM
- 3-[trans-2-(4-methoxyphenyl)vinyl]-5-(2-methoxy-(1S)-methyl-ethoxy)-N-(pyrazin-2-yl)-benzamide [Example 49] — within 1.5-fold, 381 nM
- 3-{2-[4-(3-phenyl-ureido)phenyl]ethyl}-5-(2-methoxy-(1S)-methyl-ethoxy)-N-(thiazol-2-yl)-benzamide [Example 145] — within 1.5-fold, 319 nM
